# System: not given
# Assay: not given
# Details: not given
row,Molecule,melting point
1,"COC(=O)[C@@H](NC(=O)c1sc(Nc2ccccc2OC)nc1C)c1ccccc1 [Compound 152, (S)-{[2-(2-methoxy-phenylamino)-4-methyl-thiazole-5-carbonyl]-amino}-phenyl-aceticacid methyl ester]",133.5 to 135.7 °C
2,"COC(=O)[C@H](NC(=O)c1sc(Nc2ccccc2OC)nc1C)c1ccccc1 [Compound 151, (R)-{[2-(2-methoxy-phenylamino)-4-methyl-thiazole-5-carbonyl]-amino}-phenyl-aceticacid methyl ester]",131.4 to 137.9 °C
3,"COc1ccccc1Nc1nc(C)c(C(=O)NCC2COc3ccccc3O2)s1 (centres unmarked) [Compound 217, 2-(2-methoxy-phenylamino)-4-methyl-thiazole-5-carboxylic acid (2,3-dihydro-benzo[1,4]dioxin-2-ylmethyl) amide]",138.3 to 158.2 °C
4,"COc1ccccc1Nc1nc(C)c(C(=O)NCc2ccccc2C)s1 [Compound 140, 2-(2-methoxy-phenylamino)-4-methyl-thiazole-5-carboxylic acid 2-methyl-benzylamide]",118.3 to 121.7 °C
5,"COc1ccccc1Nc1nc(C)c(C(=O)NCc2ccc(C(=O)N(C)C)cc2)s1 [Compound 137, 2-(2-methoxy-phenylamino)-4-methyl-thiazole-5-carboxylic acid 4-dimethylcarbamoyl-benzylamide]",219.1 to 226.7 °C
6,"COc1ccccc1Nc1nc(C)c(C(=O)NCc2ccc3c(c2)OCO3)s1 [Compound 162, 2-(2-methoxy-phenylamino)-4-methyl-thiazole-5-carboxylic acid (benzo[1,3]dioxol-5-ylmethyl)-amide]",166 to 167.4 °C
7,"COc1ccccc1Nc1nc(C)c(C(=O)NCc2cccc(-c3ccccc3)c2)s1 [Compound 144, 2-(2-methoxy-phenylamino)-4-methyl-thiazole-5-carboxylic acid (biphenyl-3-ylmethyl)-amide]",126.6 to 128.3 °C
8,"COc1ccccc1Nc1nc(C)c(C(=O)Nc2ccc(Cn3cccn3)cc2)s1 [Compound 166, 2-(2-methoxy-phenylamino)-4-methyl-thiazole-5-carboxylic acid (4-pyrazol-1-ylmethyl-phenyl)-amide]",211.3 to 214.4 °C
9,Cc1nc(Nc2ccc(Cl)cc2)sc1C(=O)NNc1ccc([N+](=O)[O-])cc1[N+](=O)[O-],138 to 164.7 °C
10,"COc1ccccc1Nc1nc(C)c(C(=O)N[C@@H](C(=O)O)c2ccccc2)s1 [Compound 212, (R)-{[2-(2-methoxy-phenylamino)-4-methyl-thiazole-5-carbonyl]-amino}-phenyl-aceticacid]",258.6 to 262.9 °C

# Biological target: T1, human Kv4.3/KChIP2.2 potassium channel (Homo sapiens, UniProt Q9UK17)
# T1 construct: expressed in transfected cells
# T1 sequence (Q9UK17 1-655): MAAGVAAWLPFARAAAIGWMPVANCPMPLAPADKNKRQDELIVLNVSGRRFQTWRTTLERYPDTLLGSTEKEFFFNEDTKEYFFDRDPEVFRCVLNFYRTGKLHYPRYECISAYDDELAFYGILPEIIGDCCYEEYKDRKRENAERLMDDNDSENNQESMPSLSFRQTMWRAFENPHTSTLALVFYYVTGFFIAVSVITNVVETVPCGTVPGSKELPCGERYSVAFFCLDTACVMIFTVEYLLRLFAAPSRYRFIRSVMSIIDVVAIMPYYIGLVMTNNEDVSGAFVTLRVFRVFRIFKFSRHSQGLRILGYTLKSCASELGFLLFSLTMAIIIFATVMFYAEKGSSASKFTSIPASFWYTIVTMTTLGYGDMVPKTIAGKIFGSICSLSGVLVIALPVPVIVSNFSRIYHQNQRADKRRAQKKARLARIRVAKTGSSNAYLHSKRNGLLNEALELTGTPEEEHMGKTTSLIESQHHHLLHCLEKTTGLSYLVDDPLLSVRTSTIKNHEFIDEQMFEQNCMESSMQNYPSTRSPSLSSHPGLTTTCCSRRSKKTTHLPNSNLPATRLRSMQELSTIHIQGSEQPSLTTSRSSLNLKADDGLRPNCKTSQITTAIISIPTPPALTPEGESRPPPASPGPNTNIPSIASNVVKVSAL
# Assay: Whole cell patch clamp, CHO-K1 cells stably expressing human Kv4.3/KChIP2.2
# Type: cell-based
# Details: CHO-K1; remaining current measured after application of the compound and relative to the blank; read-out: Kv4.3 charge in %
# Protocol: For this experiment, a recombinant CHO-K1 cell line stably expressing the human Kv4.3/KChIP2.2 potassium channel was used. The cells used for this experiment were kept in continuous culture under standard conditions (37° C., air supplemented with 7% CO2). The CHO-K1 Kv4.3/KChIP2.2 cells were kept in Iscove s modified DMEM (Dulbecco's Modified Eagle's Medium) medium (IMEM) supplemented with 100 U/ml Penicillin, 100 μg/ml Streptomycin, 7% fetal calf serum (FCS), 2.5 μg/ml amphotericin, 400 μg/ml G418, and 400 μg/ml Zeocin™. Cells were passed every 3-4 days after detachment using a Trypsin solution. The quality of the cultured cells was guaranteed by vitality and contamination tests. The culture of the cells was performed as described in protocol D hereunder.
# 10 mM stock solutions of the compounds were prepared in DMSO. Solutions of the compounds were prepared by dilution of stock solution in bath solution. If the required stock solution volume was theoretically below 1 μl, bath solutions with higher compound concentration were used for dilution. The maximal DMSO concentration during experiments was 0.1% (v/v).
# Activity of the human Kv4.3/KChIP2.2 channel was investigated using the patch clamp technique in its whole cell mode. This means that the current needed for clamping the whole cell expressing the K^+-channel protein to a specific potential was measured. Experiments were performed using a patch clamp set-up. Technical equipment needed for manipulation of the cells was placed on a vibration-isolated table and shielded with a Faraday cage to minimize electrical noise. The amplifier and control system were placed in a rack outside the Faraday cage. The system consisted of an EPC9 or EPC10 patch clamp amplifier (HEKA, Lambrecht, Germany), and the perfusion system DADVC8 (ALA Scientific, New York, USA) controlled by the Pulse software package (HEKA, Lambrecht, Germany) installed on a personal computer. The pipettes used for patch clamping were made of borosilicate glass.
# Measurements were performed at room temperature (20-25° C.). In each experiment (i.e. each cell) only one concentration of the compounds was investigated no cumulative dosages were performed. Each cell acted as its own control. […]
# Between voltage pulses the cell was clamped to a holding potential of −80 mV (inside). The test protocols are illustrated in FIG. 1 and Table 4. The test protocol illustrated in FIG. 1a was used to characterize the properties of the Kv4.3/KChIP2.2 channel and to check the quality of the individual patch clamp experiment (voltage control). […] Each test protocol consisted of 4 segments.
# After the whole cell configuration was established a current-voltage curve (IV activation 1; FIG. 1a and Table 4a) was recorded under constant superfusion with bath solution to check for Kv4.3/KChIP2.2 expression and the quality of the individual patch clamp experiment (voltage control). Subsequently, 14 test pulses (series 1; FIG. 1b and Table 4b) were applied at 0.1 Hz under constant superfusion with bath solution. The protocol was initiated by a voltage jump to 100 mV (400 ms) to achieve full inactivation. Then the Kv4.3/KChIP2.2 channels were transferred to the open state by depolarization to +40 mV for 300 milliseconds (activation). Only cells generating current amplitudes between 1 nA and 50 nA were used for the experimental procedure. No or negligible rundown was observed.
# Then, 36 test pulses (series 2) were applied at 0.1 Hz under constant superfusion with the compound dissolved in bath solution. Finally, another current-voltage curve was recorded in the presence of the compounds (IV activation 2).
# Three different types of analysis were used: Inhibition at the peak current, inhibition of translocated charge and inhibition 75 ms after activation at +40 mV (sustained current). The peak current/charge/current at 75 ms was determined using the online analysis tool of the HEKA pulse software package. […]
row,Molecule,remaining activity at 1 µM
1,"COc1ccccc1Nc1nc(C)c(C(=O)N[C@H]2CCC[C@@H]2OCc2ccccc2)o1 [Compound 210, 2-(2-methoxy-phenylamino)-4-methyl-oxazole-5-carboxylic acid ((1S,2S)-2-benzyloxycyclopent-1-yl) amide]",86%

# Same assay, conditions: CHO-K1; remaining peak height measured after application of the compound and relative to the blank; read-out: Kv4.3 peak in %
row,Molecule,remaining activity at 1 µM
1,"COc1ccccc1Nc1nc(C)c(C(=O)N[C@H]2CCC[C@@H]2OCc2ccccc2)o1 [Compound 210, 2-(2-methoxy-phenylamino)-4-methyl-oxazole-5-carboxylic acid ((1S,2S)-2-benzyloxycyclopent-1-yl) amide]",99%

# Same assay, conditions: Kv4.3 mediated current, charge; patch clamp; read-out: Kv4.3 charge IC50
row,Molecule,IC50
1,"Cc1nc(N(C)c2ccc(Br)cc2)sc1C(=O)N[C@@H]1CCC[C@H]1OCc1ccccc1 [Compound 29, 2-(4-bromo-phenyl-methylamino)-4-methyl-thiazole-5-carboxylic acid (1R,2R)-2-(benzyloxycyclopent-1-yl) amide]",2130 nM
2,"C[C@@H](NC(=O)c1csc(Nc2ccccc2)n1)c1ccc([N+](=O)[O-])cc1 [Compound 47, 2-phenylamino-thiazole-4-carboxylic acid 1-((R)-4-nitrophenyl-ethyl)-amide]",1800 nM
3,2-(4-bromo-phenylamino)-4-methyl-thiazole-5-carboxylic acid naphth-1-yl methylamide [Compound 27],2770 nM
4,"COc1ccccc1Nc1nc(C)c(C(=O)N[C@H](C)c2ccc3ccccc3c2)s1 [Compound 53, 2-(2-methoxy-phenylamino)-4-methyl-thiazole-5-carboxylic acid (R)-1-(2-naphtalen-2-yl-ethyl)-amide]",3950 nM
5,"COc1cccc([C@@H](C)NC(=O)c2sc(Nc3ccc(Br)cc3)nc2C)c1 [Compound 21, 2-(4-bromo-phenylamino)-4-methyl-thiazole-5-carboxylic acid (R)-1-(3-methoxyphenyl)ethyl amide]",1260 nM
6,"Cc1nc(Nc2ccc(Br)cc2)sc1C(=O)NCc1cccnc1 [Compound 58, 2-(4-bromo-phenylamino)-4-methyl-thiazole-5-carboxylic acid (pyridin-3-ylmethyl)-amide]",4330 nM
7,"Cc1nc(Nc2ccc(F)cc2)sc1C(=O)N[C@H]1CCC[C@@H]1OCc1ccccc1 [Compound 67, 2-(4-fluoro-phenylamino)-4-methyl-thiazole-5-carboxylic acid (1S,2S)-2-(benzyloxycyclopent-1-yl) amide]",1970 nM
8,"COc1ccc(Cl)cc1Nc1nc(C)c(C(=O)N[C@@H]2CCC[C@H]2OCc2ccccc2)s1 [Compound 35, 2-(5-chloro-2-methoxy-phenylamino)-4-methyl-thiazole-5-carboxylic acid (1R,2R)-2-(benzyloxycyclopent-1-yl) amide]",3060 nM
9,Cc1ccccc1Nc1nc(C)c(C(=O)N[C@@H](C)c2ccc3ccccc3c2)s1 [Compound 32],2550 nM
10,"CCCN(Cc1ccc([N+](=O)[O-])cc1)C(=O)c1sc(Nc2ccc(Br)cc2)nc1C [Compound 28, 2-(4-bromo-phenylamino)-4-methyl-thiazole-5-carboxylic acid (4-nitro-benzyl)-propyl-amide]",1060 nM
11,"Cc1nc(Nc2ccc(Br)cc2)sc1C(=O)NCc1ccncc1 [Compound 57, 2-(4-bromo-phenylamino)-4-methyl-thiazole-5-carboxylic acid (pyridin-4-ylmethyl)-amide]",11200 nM
12,"Cc1nc(Nc2ccc(Br)cc2)sc1C(=O)N[C@H]1CCC[C@@H]1OCc1ccccc1 [Compound 26, 2-(4-bromo-phenylamino)-4-methyl-thiazole-5-carboxylic acid (1S,2S)-2-(benzyloxycyclopent-1-yl) amide]",2180 nM
13,"COc1ccc(CNC(=O)c2sc(Nc3ccc(Br)cc3)nc2C)cc1OC [Compound 61, 2-(4-bromo-phenylamino)-4-methyl-thiazole-5-carboxylic acid 3,4-dimethoxy-benzylamide]",1530 nM
14,"Cc1nc(Nc2ccc(Br)cc2)sc1C(=O)NCc1ccccn1 [Compound 59, 2-(4-bromo-phenylamino)-4-methyl-thiazole-5-carboxylic acid (pyridin-2-ylmethyl)-amide]",3060 nM

# From patent publication US20080125432A1 (Devgen NV, priority 2004, published 2008)
